# Tests used:
# [1] = target: T1, hTAS2R46 (Homo sapiens, UniProt P59540); assay: calcium imaging (FLIPR), effect on agonist-dependent hTAS2R activation; format: cell-based; conditions: presence of agonist strychnine 3 μM
# T1 construct: expressed in transfected cells; host or cells: HEK293T cells stably expressing chimeric Gα16gust44, transient transfection
# T1 sequence (P59540 1-309): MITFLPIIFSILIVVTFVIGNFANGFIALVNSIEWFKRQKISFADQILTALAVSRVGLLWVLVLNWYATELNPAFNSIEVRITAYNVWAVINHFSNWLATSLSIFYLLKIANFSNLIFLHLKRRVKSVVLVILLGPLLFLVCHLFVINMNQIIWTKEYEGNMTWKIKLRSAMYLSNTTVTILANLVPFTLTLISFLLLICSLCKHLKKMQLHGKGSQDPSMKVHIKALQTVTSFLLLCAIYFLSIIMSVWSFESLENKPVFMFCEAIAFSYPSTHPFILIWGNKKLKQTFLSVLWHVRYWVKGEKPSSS
# From the text: (§1) Human TAS2R cDNAs were cloned into pcDNA5/FRT (Invitrogen, San Diego, Calif.). For adequate plasma membrane targeting, receptor cDNA was fused to the aminoterminal sequence of the rat somatostatin type 3 receptor at the aminoterminus of the recombinant protein (Bufe, B., T. Hofmann, et al. (2002) Nat Genet. 32(3): 397-401). For immunological detection, the Herpes simplex Glycoprotein D epitope was supplemented at the carboxyterminus of the recombinant protein (Bufe et al., supra). Receptor constructs were transiently transfected into HEK293T cells stably expressing the chimeric G protein subunit Gα16gust44 (Ueda, T., S. Ugawa, et al. (2003) J Neurosci 23(19): 7376-80) using Lipofectamine 2000 (Invitrogen, San Diego, Calif.) in 96-well plates.
# (§2) Calcium Imaging experiments were performed 24 h after transfection using a Fluorometric Imaging Plate Reader (FLIPR, Molecular Devices, Munich, Germany) as previously described (Bufe et al., supra). Taste active compounds were ordered from Sigma (Sigma-Aldrich, Taufkirchen, Germany). Absinthin, 3β hydroxy dihydro costunolide and 3β hydroxy pelenolide were kindly provided by Giovanni Appendino (Novara, Italy). Test substances were directly dissolved in C1 buffer (130 mM NaCl, 10 mM Na-Hepes, 10 mM Glucose, 5 mM KCl, 2 mM CaCl2, pH 7.4) or in DMSO, respectively. DMSO stocks were further diluted in C1 buffer not exceeding a final DMSO concentration of 1% on the cells. For the investigation of antagonistic effects, test substances were premixed. Agonists were applied at concentrations corresponding to EC90, except where indicated otherwise (Table 2). Data were collected from 3 independent experiments performed in quadruplicates and processed with SigmaPlot (SPSS, Chicago, Ill.). Fluorescence signals after application of test substances were corrected for and normalized to background fluorescence (ΔF/F═(F−F0)/F0), and baseline noise was subtracted. Calculation of dose-response curves was done by nonlinear regression using the function f(y)=((a−d)/(1+(x/EC50)^nH)+d).
# To test 3β hydroxy dihydro costunolide and 3β hydroxy pelenolide for antagonistic or enhancing effects on hTAS2R activation, transfected cells were stimulated with cognate agonist bitter substances at EC90 concentrations (Table 2) without 3β hydroxy dihydro costunolide and 3β hydroxy pelenolide. The cellular responses after application of the agonist alone were set to 100%, responses obtained after coapplication of agonists and 100 μM 3β hydroxy dihydro costunolide or 100 μM 3β hydroxy pelenolide are shown relative to this value (FIG. 4).
# Next we determined concentrations of half-maximal inhibition of TAS2R46. FIG. 5 illustrates the concentration-inhibition curves of TAS2R46 activated by picrotoxinin in the presence of various concentrations of 3β hydroxy dihydro costunolide or 3β hydroxy pelenolide. […] In agreement with the data described above the costunolide analog appears to be more potently inhibiting TAS2R46 than the pelenolide analog. […] As expected 3β hydroxy pelenolide has to be employed at ˜6 fold higher concentrations than 3β hydroxy dihydro costunolide to achieve 50% receptor inhibition.
# Next, we established concentration-response curves for strychnine at TAS2R46 in the presence of various concentrations of 3β hydroxy dihydro costunolide.
# (§3) Finally, the impact of chemical modifications on the antagonistic properties of 3β hydroxy dihydro costunolide on hTAS2R46-expressing cells was studied. Derivatives of 3β hydroxy dihydro costunolide with site-directed modifications at C3 and C11 were generated (FIG. 7A) These derivatives were tested for activation or inhibition of hTAS2R46-expressing cells in the absence or presence of the agonist strychnine (3 μM) and half-maximum effective concentrations (EC50) or half-maximal inhibitory concentrations were calculated (FIG. 7B).
# [2] = target: T1, hTAS2R46; assay: calcium imaging (FLIPR), activation of hTAS2R-transfected HEK293T-Gα16gust44 cells; format: cell-based; conditions: absence of agonist
# From the text: as §1
# as §2, with “f(y)=((a−d)/(1+(x/EC50)^nH)+d). […]” for “f(y)=((a−d)/(1+(x/EC50)^nH)+d).”
# as §3
SMILES,action on hTAS2R46-expressing cells (inhibition) [1],action on hTAS2R46-expressing cells (activation) [2]
C/C1=C\CC(=O)/C(C)=C/[C@H]2OC(=O)[C@@H](C)[C@@H]2CC1 [3keto dihydro costunolide],antagonists,–
CC(=O)O[C@H]1C/C=C(\C)CC[C@H]2[C@H](C)C(=O)O[C@@H]2/C=C/1C [3β hydroxy dihydro costunolide acetate],–,agonists
"C=C1C(=O)O[C@@H]2/C=C(\C)CC/C=C(\C)CC[C@@H]12 [Costunolide, reference compound]",–,agonist
C/C1=C\[C@H]2OC(=O)[C@@H](C)[C@@H]2CC/C(C)=C/CC1 [dihydro costunolide],–,no influence on the agonistic properties
